Assay results reported in patent US20230081986A1, “METHOD AND REAGENTS TO IMPROVE NONANIMAL OCULAR TOXICITY TESTS” (Lebrun Labs LLC, priority 2021, published 2023).
Read-outs that look alike come from different tables or passages of the source.

Legend:
[1] = system: food-source rabbit eyes (cornea)
Protocol: (§1) Because of these modifications, we have updated our prediction model to include the metabolic test to identify reversible irritants or toxicity as shown in FIG. 3. For GHS (A) and EPA (B) classification systems, if the direct procedure (100 µL, washed after 1 minute exposure with 20 mL tear solution using a blunt end syringe 2-5 cm from cornea to create a laminar flow across the tissue) is negative, the metabolic result is used to confirm the negative result or identify reversible irritants or toxicity (GHS 2 or EPA II) if increased DoI is detected. […] For the GHS classification system, the NC is defined by no stromal DoI and a negative metabolic test.
Only food source eyes are suitable for this procedure.
3) Put the lid onto the 12 well plate(s) and place into the incubator (37° C., 5% CO2) for one hour.
3) Place an eye on the holder and carefully place a new cloning ring in the middle of the cornea without scratching it.
9) Start the timer for one minute.
10) After the one minute is over, remove the dosing ring and put in the proper container, and pick up the tissue without touching the cornea and hold it over the container for liquid waste.

[2] = system: food-source rabbit eyes (cornea); remark: listed apart in the source
Protocol: All of the steps of the META test are the same as the direct test except for the dosing step. For the META, 100 µL of tear solution (saline with ascorbic acid, protein) is first added to the dosing ring, followed by the addition of 100 µL of the material to be tested.
as §1
NOTE: The steps of the main procedure are the same as described above. The only deviations are described below and apply to the dosing of the corneas and interpretation of results. • 1) After the pre-incubation, remove the 12 well plate(s) from the incubator and place in the hood. • 2) Using a skinny sharpie, label the wells on the lid (water or specific chemical). • 3) Place an eye on the holder and carefully place a new cloning ring in the middle of the cornea without scratching it. • 4) Remove the needle from the syringe by twisting it off. Fill the syringe with 40 mL of 1x PBS by aliquoting it from the beaker. • 5) Put the needle back on the syringe by twisting on and remove the cap protecting the needle. Place the syringe flat on a sterile piece of foil. • 6) Obtain the timer. Add 100 uL of the T8 tear solution in the center of the dosing ring. Ensure the entire surface is covered. • 7) Retrieve 100 uL of the sample and aspirate in the center of the dosing ring, ensuring the entire surface is exposed.

[3] = system: food-source rabbit eyes (cornea); details: for Prediction GHS: GHS prediction model from direct and metabolic results; for Prediction EPA: EPA prediction model from direct and metabolic results
Text: FIG. 3 depicts the EPA and GHS prediction models. […] Meta. = Metabolic; GHS = Globally Harmonized System of Classification and Labeling of chemicals; EPA = Environmental Protection Agency; NC = Not Classified; * = Apical death of epithelium of at least 10%; must be a clear line of nuclei.
as §1

[4] = system: rabbit eye (cornea, iris, and conjunctiva); details: Lebrun et al., cited from earlier work; for in vivo EPA: EPA classification, 2020 / NICEATM, 2006; for in vivo GHS: GHS classification, 2020
[5] = 100 µL, 1 minute exposure, tear solution wash, 24 hours organ culture
[6] = 6 minutes, 100 µL tear solution then 100 µL test material, run only where Direct was 0%

Molecule	Direct (depth of injury, stromal) [1, 5] [%]	Meta. (Metabolic) [2, 6]	Prediction GHS [3]	Prediction EPA [3]	in vivo EPA [4]	in vivo GHS [4]	Direct (depth of injury, stromal) ([1]; rabbit, 1 min) [%]	Meta. (Metabolic) [2]
BrCCCCCCBr [1,6-Dibromohexane]	0.0	Neg.						
Cc1ccccc1 [Toluene]	50.1		1 (GHS category 1 is defined as stromal damage of 18% or greater)					
COCC(O)CO (stereo not shown) [3-Methoxy-1,2-propanediol]	0.0	Neg.						
CCCCCCCCBr [n-Octyl bromide]	0.0							
C[Si](C)(C)O[Si](C)(C)C [Hexamethyldisiloxane]	0.0	Neg.						
CCCC(C)CO (stereo not shown) [2-Methyl-1-pentanol]				III (category III includes damage to the epithelium of the stroma up to 15%)	III (III (damage is reversed within 7 days of exposure))	2B (2 B, within 7 days)	5.7	
OCC(O)CO [Glycerol]							0.0	
CCCOCC(C)O (stereo not shown) [Propasol solvent P]	18.3		1 (GHS category 1 is defined as stromal damage of 18% or greater)	II (category II includes damage greater than 15% but less than 25% (or is positive for cell death by the metabolic test))	II (II (damage is reversed within 21 days of exposure))	2A (2 A, irritation effects are reversed within 21 days)		
CC(C)CC(=O)CC(C)C [Di-iso-butyl ketone]							0.0	
CCC(C)c1ccccc1 (stereo not shown) [sec-Butylbenzene]	0.0	Neg.						
CC(O)CC(C)O (stereo not shown) [2,4-Pentanediol]							0.0	Neg.
OC1CCCCC1 [Cyclohexanol]	29.6		1 (GHS category 1 is defined as stromal damage of 18% or greater)	I (category I includes damage greater than 25%)	I (I (corrosive, lesions are not reversed within 21 days))	1 (1 (extreme and/or irreversible irritation effects that are not reversed within 21 days))		
N#CCCCl [3-Chloropropionitrile]	12.0		2 (Category 2 is identified by any stromal DoI up to 18% or a positive metabolic test)	III (category III includes damage to the epithelium of the stroma up to 15%)	III (III (damage is reversed within 7 days of exposure))	2B (2 B, within 7 days)		
CCOC(=O)C(C)(C)O [2-Hydroxy isobutyric acid ethyl ester]					*I^2 (I (corrosive, lesions are not reversed within 21 days))	1 (1 (extreme and/or irreversible irritation effects that are not reversed within 21 days))	42.3	
CC(O)CO (stereo not shown) [Propylene glycol]							0.0	Neg.
CCCCCCCCOCCCCCCCC [Dioctyl ether]							0.0	Neg.

Molecule	Direct (depth of injury, stromal) [1, 5] [%]	Meta. (Metabolic) [2, 6]	Prediction GHS [3]	Prediction EPA [3]	in vivo EPA [4]	in vivo GHS [4]	Direct (depth of injury, stromal) ([1]; rabbit, 1 min) [%]	Meta. (Metabolic) [2]
O=C(Cl)c1c(Cl)cccc1Cl [2,6-Dichlorobenzoyl chloride]	0.0	Pos.	2 (Category 2 is identified by any stromal DoI up to 18% or a positive metabolic test)	II (category II includes damage greater than 15% but less than 25% (or is positive for cell death by the metabolic test))	II (II (damage is reversed within 21 days of exposure))	2A (2 A, irritation effects are reversed within 21 days)		
COC(C)=O [Methyl acetate]					II (II (damage is reversed within 21 days of exposure))	2A (2 A, irritation effects are reversed within 21 days)	24.0	
CC(=O)O [Acetic Acid (10%), Acetic Acid]					I (I (corrosive, lesions are not reversed within 21 days))	1 (1 (extreme and/or irreversible irritation effects that are not reversed within 21 days))		
CCCCCC(C)=O [Methyl amyl ketone]	6.0		2 (Category 2 is identified by any stromal DoI up to 18% or a positive metabolic test)	III (category III includes damage to the epithelium of the stroma up to 15%)	III (III (damage is reversed within 7 days of exposure))			
C=CC(=O)OCCCCCC(C)C [iso-Octyl acrylate]	0.0							
Diethylaminopropionitrile	56.8		1 (GHS category 1 is defined as stromal damage of 18% or greater)	II (category II includes damage greater than 15% but less than 25% (or is positive for cell death by the metabolic test))	II (II (damage is reversed within 21 days of exposure))	1 (1 (extreme and/or irreversible irritation effects that are not reversed within 21 days))		
OCCCCC(O)CO (stereo not shown) [1,2,6-Hexanetriol]	0.0	Neg.						
CCC(C)(C)C(=O)O [2,2-Dimethyl butanoic acid]					I (I (corrosive, lesions are not reversed within 21 days))	1 (1 (extreme and/or irreversible irritation effects that are not reversed within 21 days))	27.4	
CC(C)CCCCCOC(=O)CS [iso-Octylthioglycolate]	0.0	Neg.						
OC1CCCC1 [Cyclopentanol]	30.4		1 (GHS category 1 is defined as stromal damage of 18% or greater)	I (category I includes damage greater than 25%)	II (II (damage is reversed within 21 days of exposure))	2B (2 B, within 7 days)		
CC(O)C(=O)O (stereo not shown) [Lactic acid]				I (category I includes damage greater than 25%)	I (I (corrosive, lesions are not reversed within 21 days))	1 (1 (extreme and/or irreversible irritation effects that are not reversed within 21 days))	100.0	
CC(=O)CC(=O)OC(C)C [Isopropyl acetoacetate]					III (III (damage is reversed within 7 days of exposure))	2B (2 B, within 7 days)	0.0	Pos.
C=CC(=O)OCCO [Hydroxyethyl acrylate]	100.0		1 (GHS category 1 is defined as stromal damage of 18% or greater)					
O=S(=O)(Cl)c1ccccc1 [Benzenesulphonylchloride]	52.8		1 (GHS category 1 is defined as stromal damage of 18% or greater)	I (category I includes damage greater than 25%)	*I^2 (I (corrosive, lesions are not reversed within 21 days))	1 (1 (extreme and/or irreversible irritation effects that are not reversed within 21 days))		
CC(C)=O [Acetone]	0.0	Pos.	2 (Category 2 is identified by any stromal DoI up to 18% or a positive metabolic test)	II (category II includes damage greater than 15% but less than 25% (or is positive for cell death by the metabolic test))	II (II (damage is reversed within 21 days of exposure))	2A (2 A, irritation effects are reversed within 21 days)		
CCCCCC [Hexane]	0.0	Neg.						
